Reference: patent publication US10519162B2, “6,7-dihydropyrazolo[1,5-α]pyrazin-4(5H)-one compounds and their use as negative allosteric modulators of mGluR2 receptors” (Janssen Pharmaceutica NV, priority 2014, dated 2019)

Legend:
Male Wiga Wistar rats = test: Reversal of LY-404039-induced decrease of palpebral opening in apomorphine-challenged rats (APO LY-404039); format: in vivo, rat; conditions: Rattus norvegicus, apomorphine challenged rats
Protocol: B) In Vivo Pharmacology 1) Reversal of LY-404039-Induced Decrease of Palpebral Opening in Apomorphine-Challenged Rats.
Male Wiga Wistar rats (Crl:WI; Charles River Germany; 220±40 g) were housed under standard laboratory conditions (21±2° C.; 50-65% relative humidity; light-dark cycle set at 12 h; lights on at 6.00 h) and fasted overnight prior to the start of the experiments (tap water remained available ad libitum). During the test period, they were housed in individual cages. Palpebral opening was scored every 5 min over the first hour after injection of apomorphine (1.0 mg/kg, i.v.) in animals either pretreated or not pretreated with LY-404039 (2.5 mg/kg, s.c.) at 1 h prior to the apomorphine injection. The animals were also pretreated with test compound or solvent at a predefined interval before apomorphine challenge. The score system was: (5) exophthalmos, (4) wide open, (3) open for three-quarters, (2) half open, (1) open for one-quarter, (0) closed. The scores for palpebral opening were cumulated over the 60-min observation period.
In animals receiving apomorphine alone the median palpebral opening is 43 whereas in animals receiving apomorphine and LY-404039, the median palpebral opening is 17.

human mGlu2 receptor = biological target: T1, human mGlu2 receptor (Homo sapiens, UniProt Q14416); test: [35S]GTPγS binding assay (mGluR2 negative allosteric modulation, glutamate ~EC80 60 μM); format: biochemical; conditions: for Emax: maximal % inhibition relative to the control glutamate response (EC80 glutamate), read-out: GTPγS-hmGluR2 anGT Emax; for IC50: membranes from CHO cells transfected with human mGlu2 receptor, glutamate ~EC80 (60 μM), pIC50 = −log IC50 (M), read-out: GTPγS-hmGluR2 anGT pIC50 (converted)
T1 construct: expressed in transfected cells; host or cells: CHO cells
Protocol: 1) [^35S]GTPγS Binding Assay
[^35S]GTPγS Binding Assay
Total reaction volume was 200 μl. […] Membrane-bound radioactivity was counted in a Topcount.

rats = test: Reversal of the effect of the mGluR2 PAM JNJ-42153605-induced inhibition of scopolamine-induced hyperlocomotion (SCOP JNJ-42153605); format: in vivo, rat; conditions: Rattus norvegicus, rats, reversal criterion total distance >1500 cm
In short: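 Rats got test compound or vehicle 60 min pre-recording, JNJ-42153605 (20 mg/kg, i.v.) 30 min pre-recording, then scopolamine (0.16 mg/kg, i.v.) just before. Total distance over the first 30 min was video-tracked; all-or-none reversal criterion: total distance >1500 cm.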

Wiga rats = test: Induction of mydriasis (MYD); format: in vivo; conditions: Rattus norvegicus, pupil diameter >25 units, 1-3 h post-administration
Protocol: 3) Induction of Mydriasis
The pupil diameter of Wiga rats was measured with a microscopic micrometer (1 unit=1/24 mm). Criteria for drug-induced effects: pupil diameter >25 units for mydriasis (in controls: 1.9%) 1, 2 or 3 h post-administration of the test compound (wherein the maximum pupil diameter over the full 3 h period is reported).

Male Long Evans rats = test: V-maze test (PCP-disrupted visual-spatial working memory); format: in vivo, rat; conditions: Co. No. 8 at doses 0.16 and 0.31 mg/kg p.o. 4 h before test, PCP 0.75 mg/kg s.c. 30 min prior to test
Description: Data are reported as Mean±SEM, n=12/group; ANOVA with LSD-post hoc, p vs. familiar arm: *** p<0.001, *<0.05. In FIG. 1, veh means vehicle and CPD means Co. No. 8
The V-maze-test is a two-trial short term visual-spatial working memory task based on spontaneous exploration of a new and a familiar arm in a 2-arm maze (Embrechts et al. (2013) “Longitudinal characterization of the TauPS2APP mouse model of Alzheimer's disease in a two trial discrimination task of visuo-spatial recognition memory”, 45th European Brain and Behaviour Society Meeting 6-9 Sep. 2013, Munich, Abstract P202).
Male Long Evans rats (Janvier, France, body weight 280 to 295 g) were group housed in enriched individually ventilated cages and habituated to environmental conditions for 5 days. After acclimatization, animals were single housed for 4 days until testing. During this period animals were handled for 2 min per day and received sham dosing once a day for 3 days prior to the test. […] The animal's exploration of each arm was automatically quantified using Ethovision XT 7.0 (Noldus, The Netherlands). […] The time spent in the familiar and new arm respectively during the choice session was recorded for 5 min.
Co. No. 8 was evaluated in rats in a series of dose-response studies evaluating doses from 0.16 to 0.63 mg/kg.

T1 sequence (Q14416 19-872): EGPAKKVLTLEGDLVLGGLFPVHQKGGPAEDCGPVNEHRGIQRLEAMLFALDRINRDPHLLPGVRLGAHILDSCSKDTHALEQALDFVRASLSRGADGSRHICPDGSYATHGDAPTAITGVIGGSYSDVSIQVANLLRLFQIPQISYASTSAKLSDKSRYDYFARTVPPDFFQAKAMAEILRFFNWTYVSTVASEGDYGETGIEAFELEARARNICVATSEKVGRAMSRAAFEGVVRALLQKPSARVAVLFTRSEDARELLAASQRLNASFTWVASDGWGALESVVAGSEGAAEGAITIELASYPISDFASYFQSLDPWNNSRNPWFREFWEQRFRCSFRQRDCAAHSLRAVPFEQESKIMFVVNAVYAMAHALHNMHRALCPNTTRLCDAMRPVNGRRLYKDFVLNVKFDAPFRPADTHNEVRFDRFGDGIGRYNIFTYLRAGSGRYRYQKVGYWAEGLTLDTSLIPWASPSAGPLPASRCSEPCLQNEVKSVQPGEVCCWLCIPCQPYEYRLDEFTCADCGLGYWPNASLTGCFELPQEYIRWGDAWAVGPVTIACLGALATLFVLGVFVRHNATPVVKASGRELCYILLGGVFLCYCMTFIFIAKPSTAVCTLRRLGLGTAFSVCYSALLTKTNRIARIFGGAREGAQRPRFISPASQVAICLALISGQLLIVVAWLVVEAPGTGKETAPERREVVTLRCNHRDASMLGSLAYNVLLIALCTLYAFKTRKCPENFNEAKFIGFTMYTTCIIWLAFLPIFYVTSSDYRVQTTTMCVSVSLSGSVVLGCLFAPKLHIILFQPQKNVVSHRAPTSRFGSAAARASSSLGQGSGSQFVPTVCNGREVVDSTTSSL

Row | Emax (human mGlu2 receptor) [%] | IC50 (human mGlu2 receptor) [M] | melting point [°C] | Structure (SMILES) | ED50 (Male Wiga Wistar rats; PO (oral route)) [mg/kg] | ED50 (rats; PO (oral route)) [mg/kg] | ED50 (Wiga rats; PO (oral route)) [mg/kg] | ED50 (Male Wiga Wistar rats; SC (subcutaneous route)) [mg/kg] | exploration of the new vs. the familiar arm in the V-maze (reversal of PCP deficit) (Male Long Evans rats) | ED50 (rats; SC (subcutaneous route)) [mg/kg] | ED50 (Wiga rats; SC (subcutaneous route)) [mg/kg]
1 | 107 | 7.59e-09 | 152.59 | C[C@H]1CN(c2ccc(C(F)(F)F)cc2)C(=O)c2c(NC(=O)c3cccnc3)cnn21 [Co. No. 28] | 0.78 | 0.39 | 25 | – | – | – | –
2 | 110 | 2.14e-09 | 240.39 | C[C@H]1CN(c2ccc(C(F)(F)F)cc2)C(=O)c2c(NC(=O)c3ccc(N)nc3)cnn21 [Co. No. 8, 6-Amino-N-[(7S)-7-methyl-4-oxo-5-[4-(trifluoromethyl)phenyl]-6,7-dihydropyrazolo[1,5-a]pyrazin-3-yl]pyridine-3-carboxamide] | 0.19 | 0.13 | 8.7 | 0.34 | significantly reversed the PCP deficit | 0.13 | 7.1
3 | 109 | 1.15e-09 | 219.62 | C[C@H]1CN(c2ccc(C(F)(F)F)c(Cl)c2)C(=O)c2c(NC(=O)c3ccc(N)nc3)cnn21 [Co. No. 1, 6-Amino-N-[(7S)-5-[3-chloro-4-(trifluoromethyl)phenyl]-7-methyl-4-oxo-6,7-dihydropyrazolo[1,5-a]pyrazin-3-yl]pyridine-3-carboxamide] | 0.39 | 0.26 | 14.1 | – | – | – | –
4 | 107 | 1.12e-09 | 160.38 | Cc1cncc(C(=O)Nc2cnn3c2C(=O)N(c2ccc(C(F)(F)F)c(Cl)c2)C[C@@H]3C)c1 [Co. No. 101, N-[(7S)-5-[3-chloro-4-(trifluoromethyl)phenyl]-7-methyl-4-oxo-6,7-dihydropyrazolo[1,5-a]pyrazin-3-yl]-5-methyl-pyridine-3-carboxamide] | 0.18 | > 0.63 | 5 | – | – | – | –
